{"source": "paper PMC6366974", "about": "“The curcumin analog EF24 is a novel senolytic agent” (Aging (Albany NY), 2019)", "experiment_in_all_cases": "Western blotting of protein expression in WI-38 cells", "format_in_all_cases": "cell-based, human", "key": {"Bcl-2": {"test_system": "Bcl-2", "details": "WI-38 IR-SCs, 0.5, 1 and 2 µM, 72 h; did not reach statistical significance", "procedure": "(§1) After treatment with vehicle or EF24 at 0.5, 1 and 2 µM for 72 h, WI-38 NCs or IR-SCs were harvested in 1.5mL microcentrifuge tubes, and lysed in RIPA buffer with EDTA and EGTA (Cat. No. BP-115DG, Boston BioProducts, Ashland, MA, USA) supplemented with 1% protease inhibitor cocktail (Cat. No. P8340, Sigma-Aldrich, St. Louis, MO, USA) and 1% phosphatase inhibitor cocktail (Cat. No. P0044, Sigma-Aldrich, St. Louis, MO, USA). An equal amount of protein (30 µg/lane) from each cell extract was resolved on a precast gel (Mini-PROTEAN TGX™, Cat. No. 456-1094, Bio-Rad, Hercules, CA, USA). Proteins were blotted to a precut 0.2 µm PVDF membrane (Invitrolon™, Cat. No. LC2002, Life Technologies, Carlsbad, CA, USA) by electrophoresis. The membranes were blocked with 1X TBS-Tween (TBST, Cat. No. J77500, Affymetrix, Santan Clara, CA, USA) containing 5% non-fat dry milk (Cat. No. sc-2324, Santa Cruz Biotechnology, Dallas, TX, USA), and subsequently probed with primary antibodies at a predetermined optimal concentration overnight at 4°C. The primary antibodies including Bcl-xl (Cat. No. 2762), Mcl-1 (Cat. No. 5453), and Bcl-2 (Cat. No. 2872) and β-actin (Cat. No. 4970) were purchased from Cell Signaling Technology (Danvers, MA, USA). After washing with TBST for 3 times (10 min each time), the membranes were incubated with the secondary horse radish peroxidase (HRP)-linked antibody (Cat. No. 7074, Cell Signaling Technology, Danvers, MA, USA) for 2 h at room temperature. Following sufficient washing with TBST, the membranes were incubated with chemiluminescent HRP substrate (Immobilon™ Western, Cat. No. P36599, MilliporeSigma, Billerica, MA, USA) that consists of equal volume of luminol reagent and peroxide solution. The blotting membranes were recorded using autoradiography (SRX-101, Konica, Shinjuku, Tokyo, Japan). For the proteasome inhibition experiment, IR-SCs were treated with vehicle (0.1% DMSO) or 1 µM MG132 (Cat. No. S2619, Selleckchem, Houston, TX, USA) for 1 h prior to the incubation with EF24 at 0, 0.5, 1 and 2 µM for 72h."}, "Bcl-xl": {"test_system": "Bcl-xl", "details": "72 h", "procedure": "as §1"}, "Mcl-1": {"test_system": "Mcl-1", "details": "WI-38 IR-SCs, 0.5, 1 and 2 µM, 72 h", "procedure": "as §1"}}}
{"smiles": "O=C1/C(=C/c2ccccc2F)CNC/C1=C\\c1ccccc1F", "note": "[EF24]", "values": [{"measurement": "levels of Bcl-2 in IR-SCs", "setting": "Bcl-2", "value": "slightly reduced"}, {"measurement": "expression of Bcl-xl in IR-SCs", "setting": "Bcl-xl; WI-38 IR-SCs, 0.5, 1 and 2 µM", "value": "significantly reduce"}, {"measurement": "expression of Bcl-xl in NCs", "setting": "Bcl-xl; WI-38 NCs, 0.5, 1 and 2 µM", "value": "not in NCs"}, {"measurement": "expression of Mcl-1 in IR-SCs", "setting": "Mcl-1", "value": "significantly reduce"}]}
